Where “and” joins values, the source holds several entries; their conditions need not be identical. Identical values can stand only once. Inconclusive results and toxic doses are left out.

The source of these data is PubChem BioAssay AID256 (DTP/NCI, 2004).

This test relates to CD2F1 mice, L1210 leukemia ip, survival T/C. Briefly: NCI In Vivo Anticancer Drug Screen. Data for tumor model L1210 Leukemia (intraperitoneal) in CD2F1 (CDF1) mice. The conditions noted are these: higher = longer survival. In a few lines: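 Vehicle-treated tumor-bearing mice served as controls (C) for compound-treated mice (T). Reported figure is T divided by C.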
Setting [1] is: endpoint: mean survival time, dose: 100.0 mg/kg/injection, schedule: Q01DX001 (ip), vehicle: saline.
The mark [2] stands for this setting: endpoint: mean survival time, dose: 6.25 mg/kg/injection, schedule: Q04DX003 (ip), vehicle: saline with Tween-80.
The mark [3] stands for this setting: endpoint: mean survival time, dose: 12.5 mg/kg/injection, schedule: Q04DX003 (ip), vehicle: saline with Tween-80.
Where [4] appears, read: endpoint: mean survival time, dose: 100.0 mg/kg/injection, schedule: Q01DX009 (ip), vehicle: saline with Tween-80.
Setting [5] is: endpoint: mean survival time, dose: 100.0 mg/kg/injection, schedule: Q01DX001 (ip), vehicle: saline with Tween-80.
The mark [6] stands for this setting: endpoint: mean survival time, dose: 200.0 mg/kg/injection, schedule: Q01DX001 (ip), vehicle: saline with Tween-80.
Where [7] appears, read: endpoint: mean survival time, dose: 400.0 mg/kg/injection, schedule: Q01DX001 (ip), vehicle: saline with Tween-80.

As for `O=C(O)CC(=O)O.[NH-]CC[NH-].[Pt+2]`, the T/C by setting is: (endpoint: mean survival time, dose: 25.0 mg/kg/injection, schedule: Q01DX009 (ip), vehicle: dextrose) 100 % of control; (endpoint: median survival time, dose: 40.0 mg/kg/injection, schedule: Q01DX009 (ip), vehicle: saline with Tween-80) 89 % of control; (endpoint: median survival time, dose: 50.0 mg/kg/injection, schedule: Q01DX001 (ip), vehicle: saline) 111 % of control.

In the case of `CC(Sc1ccccc1)C(=O)O` (stereo not given), the T/C was 98 % of control under setting [1]; 102 % of control (endpoint: mean survival time, dose: 200.0 mg/kg/injection, schedule: Q01DX001 (ip), vehicle: saline); 98 % of control (endpoint: mean survival time, dose: 400.0 mg/kg/injection, schedule: Q01DX001 (ip), vehicle: saline).

Consider `C=CCOCC(O)C[As](=O)(O)c1ccc(OC)cc1` (stereo not given), for which the T/C was 92 % of control under setting [2]; 101 % of control under setting [3]; 98 % of control (endpoint: mean survival time, dose: 25.0 mg/kg/injection, schedule: Q04DX003 (ip), vehicle: saline with Tween-80).

On to `[Br][Pt+2][Br].[NH-]c1cccc(I)c1.[NH-]c1cccc(I)c1`, for which the T/C is 98 % of control (endpoint: mean survival time, dose: 3.12 mg/kg/injection, schedule: Q04DX003 (ip), vehicle: distilled water + Tween-80); 101 % of control (endpoint: mean survival time, dose: 6.25 mg/kg/injection, schedule: Q04DX003 (ip), vehicle: distilled water + Tween-80); 101 % of control (endpoint: mean survival time, dose: 12.5 mg/kg/injection, schedule: Q04DX003 (ip), vehicle: distilled water + Tween-80); 101 % of control (endpoint: mean survival time, dose: 25.0 mg/kg/injection, schedule: Q04DX003 (ip), vehicle: distilled water + Tween-80); 101 % of control (endpoint: mean survival time, dose: 50.0 mg/kg/injection, schedule: Q04DX003 (ip), vehicle: distilled water + Tween-80); 98 % of control (endpoint: mean survival time, dose: 100.0 mg/kg/injection, schedule: Q04DX003 (ip), vehicle: distilled water + Tween-80). Moreover, the T/C (endpoint: mean survival time, dose: 200.0 mg/kg/injection, schedule: Q04DX003 (ip), vehicle: distilled water + Tween-80) is 114 % of control.

Regarding `O=C1C=CC(=O)N1c1ccccc1[N+](=O)[O-]`, the T/C (endpoint: mean survival time, dose: 3.0 mg/kg/injection, schedule: Q01DX009 (ip), vehicle: saline with Tween-80) was 96 % of control; the T/C (endpoint: mean survival time, dose: 6.0 mg/kg/injection, schedule: Q01DX009 (ip), vehicle: saline with Tween-80) is 100 % of control; the T/C under setting [2] is 100 % of control; the T/C (endpoint: mean survival time, dose: 12.0 mg/kg/injection, schedule: Q01DX009 (ip), vehicle: saline with Tween-80) was 97 % of control; the T/C under setting [3] is 97 % of control.

Consider `Cc1cc(-c2ccccc2)cc(=S)[nH]1`, for which the T/C (endpoint: mean survival time, dose: 100.0 mg/kg/injection, schedule: Q01DX001 (ip), vehicle: carboxymethylcellulose (CMC)) is 88 % of control; the T/C (endpoint: mean survival time, dose: 200.0 mg/kg/injection, schedule: Q01DX001 (ip), vehicle: carboxymethylcellulose (CMC)) is 94 % of control; the T/C (endpoint: mean survival time, dose: 400.0 mg/kg/injection, schedule: Q01DX001 (ip), vehicle: carboxymethylcellulose (CMC)) is 95 % of control.

On to `O=C1CCCCCC2=NC12` (stereo not given), for which the T/C is 97 % of control (endpoint: median survival time, dose: 6.25 mg/kg/injection, schedule: Q01DX009 (ip), vehicle: Klucel (hydroxypropylcellulose) (HPC)); 102 % of control (endpoint: median survival time, dose: 12.5 mg/kg/injection, schedule: Q01DX009 (ip), vehicle: Klucel (hydroxypropylcellulose) (HPC)); 105 % of control (endpoint: median survival time, dose: 25.0 mg/kg/injection, schedule: Q01DX009 (ip), vehicle: Klucel (hydroxypropylcellulose) (HPC)); 111 % of control (endpoint: median survival time, dose: 50.0 mg/kg/injection, schedule: Q01DX009 (ip), vehicle: Klucel (hydroxypropylcellulose) (HPC)).

Consider `CCOC(=O)c1ccc(Cl)cc1`, for which the T/C (endpoint: mean survival time, dose: 25.0 mg/kg/injection, schedule: Q01DX009 (ip), vehicle: saline with Tween-80) is 101 % of control; the T/C (endpoint: mean survival time, dose: 50.0 mg/kg/injection, schedule: Q01DX009 (ip), vehicle: saline with Tween-80) is 102 % of control; the T/C under setting [4] is 95 % of control.

In the case of `O=C(Nc1ccc(Oc2ccc(Cl)c(Cl)c2)c(Cl)c1)Nc1cc(Cl)c(Cl)cc1S(=O)(=O)O`, the T/C (endpoint: mean survival time, dose: 100.0 mg/kg/injection, schedule: Q01DX001 (ip), vehicle: saline sonified) was 96 % of control; the T/C under setting [4] was 97 % of control; the T/C (endpoint: mean survival time, dose: 200.0 mg/kg/injection, schedule: Q01DX001 (ip), vehicle: saline sonified) was 93 % of control; the T/C (endpoint: mean survival time, dose: 400.0 mg/kg/injection, schedule: Q01DX001 (ip), vehicle: saline sonified) is 96 % of control.

On to `NC(=S)N=Nc1c(O)cc(O)c2[nH]c(=O)ccc12`, for which the T/C under setting [1] was 109 % of control.

As to `CC(C)(C)NC(=O)Nc1ccc(Cl)c(Cl)c1`, the T/C runs as follows: under setting [5], 93 % of control; under setting [6], 88 % of control; under setting [7], 93 % of control.

Regarding `O=C1NC23C(=O)N(C4CCCCC4)CC2(Cc2ccccc2)c2ccccc2N3C1=O` (stereo not given), the T/C was 86 % of control under setting [5], 92 % of control under setting [6] and 86 % of control under setting [7].

Turning to `O=S(=O)(O)SCCN1CCOCC1`, the T/C is, setting by setting: (endpoint: mean survival time, dose: 100.0 mg/kg/injection, schedule: Q01DX009 (ip), vehicle: saline) 103 % of control; (endpoint: mean survival time, dose: 100.0 mg/kg/injection, schedule: Q04DX003 (ip), vehicle: saline with Tween-80) 101 % of control; (endpoint: mean survival time, dose: 200.0 mg/kg/injection, schedule: Q01DX009 (ip), vehicle: saline) 106 % of control; (endpoint: mean survival time, dose: 200.0 mg/kg/injection, schedule: Q04DX003 (ip), vehicle: saline with Tween-80) 101 % of control; (endpoint: mean survival time, dose: 400.0 mg/kg/injection, schedule: Q01DX009 (ip), vehicle: saline) 104 % of control; (endpoint: mean survival time, dose: 400.0 mg/kg/injection, schedule: Q04DX003 (ip), vehicle: saline with Tween-80) 100 % of control.

Turning to `O=C1C=CC(=O)c2c1ccc1ccccc21`, the T/C reads like this: (endpoint: mean survival time, dose: 12.5 mg/kg/injection, schedule: Q01DX001 (ip), vehicle: acetone) 104 % of control; (endpoint: mean survival time, dose: 25.0 mg/kg/injection, schedule: Q01DX001 (ip), vehicle: acetone) 105 % of control; (endpoint: mean survival time, dose: 50.0 mg/kg/injection, schedule: Q01DX001 (ip), vehicle: acetone) 105 % of control.

In the case of `CC1=CC(=O)c2ccccc2C1=O`, the T/C (endpoint: mean survival time, dose: 9.0 mg/kg/injection, schedule: Q01DX009 (ip), vehicle: other) was 100 % of control; the T/C (endpoint: mean survival time, dose: 13.5 mg/kg/injection, schedule: Q01DX009 (ip), vehicle: other) was 114 % of control; the T/C (endpoint: mean survival time, dose: 20.0 mg/kg/injection, schedule: Q01DX001 (ip), vehicle: other) is 95 % of control; the T/C (endpoint: mean survival time, dose: 20.0 mg/kg/injection, schedule: Q01DX009 (ip), vehicle: other) is 97 % of control; the T/C (endpoint: mean survival time, dose: 30.0 mg/kg/injection, schedule: Q01DX009 (ip), vehicle: other) is 97 % of control; the T/C (endpoint: mean survival time, dose: 40.0 mg/kg/injection, schedule: Q01DX001 (ip), vehicle: other) was 104 % of control. Further, the T/C (endpoint: mean survival time, dose: 60.0 mg/kg/injection, schedule: Q01DX001 (ip), vehicle: other) is 104 % of control and the T/C (endpoint: mean survival time, dose: 90.0 mg/kg/injection, schedule: Q01DX001 (ip), vehicle: other) was 104 % of control.

As for `NCCCNCCCCNC(=O)C(O)NC(=O)CC(O)CCCCN=C(N)N` (stereo not given), the T/C runs as follows: (endpoint: median survival time, dose: 1.56 mg/kg/injection, schedule: Q01DX009 (ip), vehicle: saline) 161 % of control and 181 % of control; (endpoint: median survival time, dose: 3.0 mg/kg/injection, schedule: Q01DX009 (ip), vehicle: saline) 162 % of control; (endpoint: median survival time, dose: 3.12 mg/kg/injection, schedule: Q01DX009 (ip), vehicle: saline) 164 % of control and 168 % of control and 210 % of control; (endpoint: median survival time, dose: 6.0 mg/kg/injection, schedule: Q01DX009 (ip), vehicle: saline) 207 % of control; (endpoint: median survival time, dose: 6.25 mg/kg/injection, schedule: Q01DX009 (ip), vehicle: saline) 164 % of control and 191 % of control and 219 % of control; (endpoint: median survival time, dose: 12.0 mg/kg/injection, schedule: Q01DX009 (ip), vehicle: saline) 219 % of control. In addition, the T/C was 173 % of control and 196 % of control and 217 % of control (endpoint: median survival time, dose: 12.5 mg/kg/injection, schedule: Q01DX009 (ip), vehicle: saline); 206 % of control and 235 % of control (endpoint: median survival time, dose: 100.0 mg/kg/injection, schedule: Q01DX009 (ip), vehicle: saline).

Regarding `NC(=O)CNC1=C(N2CC2)C(=O)C(NCC(N)=O)=C(N2CC2)C1=O`, the T/C was 172 % of control (endpoint: mean survival time, dose: 5.0 mg/kg/injection, schedule: Q01DX009 (ip), vehicle: saline); 180 % of control and 192 % of control (endpoint: mean survival time, dose: 10.0 mg/kg/injection, schedule: Q01DX009 (ip), vehicle: saline); 91 % of control (endpoint: mean survival time, dose: 15.0 mg/kg/injection, schedule: Q01DX009 (ip), vehicle: saline).
